{
  "source": "the NIST ThermoML archive (doi:10.1016/j.jct.2008.01.007)",
  "settings": "101 kPa, Liquid",
  "note": "± gives the expanded uncertainty stated by the source.",
  "data": [
    {"smiles": "OCCN1CCOCC1", "note": "[4-morpholineethanol]", "values": [
      {"measurement": "mass density", "setting": "293.15 K", "value": "1076.58 ± 3.1", "unit": "kg/m3"},
      {"measurement": "viscosity", "setting": "293.15 K", "value": "26.58 ± 1.8", "unit": "mPa·s"},
      {"measurement": "mass density", "setting": "303.15 K", "value": "1066.51 ± 3", "unit": "kg/m3"},
      {"measurement": "viscosity", "setting": "303.15 K", "value": "21.99 ± 1.5", "unit": "mPa·s"},
      {"measurement": "mass density", "setting": "313.15 K", "value": "1059.19 ± 2.8", "unit": "kg/m3"},
      {"measurement": "viscosity", "setting": "313.15 K", "value": "17.32 ± 1.2", "unit": "mPa·s"},
      {"measurement": "mass density", "setting": "323.15 K", "value": "1052.64 ± 2.7", "unit": "kg/m3"},
      {"measurement": "viscosity", "setting": "323.15 K", "value": "12.86 ± 0.92", "unit": "mPa·s"},
      {"measurement": "mass density", "setting": "333.15 K", "value": "1046.43 ± 2.6", "unit": "kg/m3"},
      {"measurement": "viscosity", "setting": "333.15 K", "value": "8.284 ± 0.64", "unit": "mPa·s"}
    ]}
  ]
}
